Five compounds from US20260176260A1, “DUAL RAF AND TUBULIN INHIBITORS AND METHODS OF USE THEREOF” (Deciphera Pharmaceuticals, LLC, priority 2023, published 2026) can be followed below.

In one experiment the test system is HPAF-II cells. In words: HPAF-II cell proliferation assay (resazurin). In kind it is cell-based. To be noted: read-out: HPAF-II. In a few lines: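 Serial compound dilutions in triplicate with 750 cells/well in complete MEM with 10% FBS, 115 to 120 h at 37° C, 5% CO2. Resazurin then added for 18 to 24 h; fluorescence at ex 540/em 600 nm used to derive IC50.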
For experiment [1], the system named is tubulin polymerization in HCT-116 cells. In words: Cellular tubulin polymerization assay (pellet/supernatant a-tubulin, HCT-116 cells). To be noted: Table 3, HCT-116 cells; read-out: Tubulin Cellular. In kind it is cell-based. As to the method: HCT-116 cells (catalog #CCL-247) are obtained from the American Type Culture Collect (ATCC, Manassas, VA). Briefly, cells are grown in McCoy's 5A supplemented with 10% characterized fetal bovine serum (Invitrogen, Carlsbad, CA) and 1% Penicillin/Streptomycin/L-Glutamine at 37° C., 5% CO2, and 95% humidity. Cells are expanded until reaching 70-95% confluency at which point they are sub-cultured or harvested for assay use. 450000 cells are added per well in 1500 μL complete growth medium in a tissue culture treated, 12-well plate. Plates are incubated for 18 to 24 h at 37° C., 5% CO2, and 95% humidity. At the end of the incubation, 2000 μL of base culture media is added to each well, followed by a serial dilution of compound. Plates are incubated for an additional 1 h at 37° C., 5% CO2, and 95% humidity. Lysates are generated by the addition of 100 μL Lysis and Microtubule Stabilization Buffer 1 (LMS01, Cytoskeleton Inc, Denver, CO) supplemented with GTP (BST06, Cytoskeleton Inc), ATP (BSA04, Cytoskeleton Inc), and Protease Inhibitor Cocktail Stock (PIC02, Cytoskeleton Inc). Cells are scraped off wells using a rubber cell scraper and collected in a clean 96-well plate. Lysates are centrifuged at 1000×g, 37° C. for 10 min and supernatant fraction is placed into an additional 96-well plate. The remaining pellet fraction is reconstituted in 100 μL LMS01 buffer and sonicated for 10 min. Pellet and Supernatant fractions are probed for a-tubulin via western blot analysis on the Jess System or equivalent (Bio-techne, Minneapolis, MN). Data is analyzed using Prism software (Graphpad, San Diego, CA) to calculate IC50 values.

[2] abbreviates: Homo sapiens, Table 2, inhibition of cell proliferation.

Read-outs that look alike come from different tables or passages of the source.

`CNC(=O)c1cc(-c2cc(-c3cc(NC(=O)c4cc(C(F)(F)F)cnn4)ccc3C)ccn2)ccn1` [Example 9]: the IC50 (in the experiment with HPAF-II cells (setting [2]); in the experiment with HPAF-II cells (Table 3); in experiment [1]) was 100 to 500 nM each time.

Take `CNC(=O)c1cc(-c2cc(-c3cc(NC(=O)c4cc(C5CC5)cnn4)ccc3C)ccn2)ccn1` [Example 26]: the IC50 (with HPAF-II cells (setting [2]); in the experiment on HPAF-II cells (Table 3); in experiment [1]) was 100 to 500 nM each time.

In the case of `CNC(=O)c1cc(-c2cc(-c3cc(NC(=O)c4cc(C(F)(F)F)cnn4)ccc3C)cc(NCCO)n2)ccn1` [Example 18], the values for the IC50 (in the experiment on HPAF-II cells (setting [2]); in the experiment with HPAF-II cells (Table 3); in experiment [1]) were 100 to 500 nM, 100 to 500 nM and less than 100 nM, respectively.

In the case of `CNC(=O)c1cc(-c2cc(-c3cc(NC(=O)c4cc(C(F)(F)F)cnn4)ccc3C)cc(C)n2)ccn1` [Example 2, N,6-dimethyl-4-(2-methyl-5-(5-(trifluoromethyl)pyridazine-3-carboxamido)phenyl)-[2,4′-bipyridine]-2′-carboxamide], the IC50 was 500 to 1000 nM in the experiment on HPAF-II cells (setting [2]), 500 to 1000 nM in the experiment with HPAF-II cells (Table 3) and 100 to 500 nM in experiment [1].

In the case of `CNC(=O)c1cc(-c2cc(-c3cc(NC(=O)c4cc(C5CC5)cnn4)ccc3C)cc(NCCO)n2)ccn1` [Example 27], the IC50 (with HPAF-II cells (setting [2]); in the experiment on HPAF-II cells (Table 3); in experiment [1]) was 100 to 500 nM each time.
